Data: patent US20190367871A1, “EMBRYONIC STEM CELL MEDIA AND CULTURE” (YISSUM RESEARCH DEVELOPMENT COMPANY OF THE HEBREW …, priority 2018, published 2019)

Tests used:
[1] = test system: human foreskin fibroblasts; assay: Growth of fibroblasts under mTOR inhibitor treatment (CellTiter-Glo); format: cell-based; settings: two days of treatment, low nanomolar concentrations
diploid hESCs = assay: Growth curve of hESCs (CellTiter-Glo luminescent cell viability assay); format: cell-based, human
Protocol: All genes were targeted with commercial pooled siRNAs to increase the specificity of the knockdown. esiRNAs for SALL4, DSCC1 and SEPHS1 and the control esiRNA for Renilla luciferase were obtained from Sigma (cat. nos. EHU037061, EHU021301, EHU107861 and EHURLUC, respectively). siRNA for VRTN was obtained from GE Healthcare Dharmacon (cat. no. L-021159-02-0005). Briefly, 30-50 nM siRNA was mixed with 0.14 μl of DharmaFECT 1 transfection reagent (GE Healthcare Dharmacon) in Opti-MEM I reduced serum medium (Thermo Fisher Scientific) for 30 min. The transfection mix was added on a matrigel-coated well of a 96-well plate and 3,000 hESCs were plated on the transfection mix in the presence of mTeSR 1 medium. The cells were subsequently grown for 3-4 days and the mTeSR 1 medium was replaced every 24 h. Cell viability was assessed by a CellTiter-Glo luminescent cell viability assay according to the manufacturer's instructions (Promega). Luminescence reads for the target genes were normalized to control siRNA conditions, and the replicate experiments were averaged. For growth curves of IGF1-treated and control hESCs, cells were plated in matrigel-coated wells with equal numbers and their density was measured for four consecutive days with CellTiter-Glo luminescent cell viability assay (Promega). The density measured one day after plating was considered Day 0, after which cells were switched to MEF-conditioned medium containing 100 ng ml^−1 IGF1. Every day was normalized to Day 0 and replicate experiments were averaged.

[2] = target: Bax (BCL2 associated X, apoptosis regulator) (human) (UniProt Q07812); assay: cell-based or functional assay
UniProt Q07812, sequence (Q07812 whole entry): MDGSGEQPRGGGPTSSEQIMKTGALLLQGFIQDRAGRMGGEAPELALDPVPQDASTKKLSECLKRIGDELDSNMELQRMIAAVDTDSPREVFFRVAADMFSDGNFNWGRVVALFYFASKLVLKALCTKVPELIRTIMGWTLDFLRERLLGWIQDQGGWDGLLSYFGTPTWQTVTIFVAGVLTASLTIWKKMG

hESCs [3] = assay: Effect of Bax inhibition on hESC growth (CellTiter-Glo luminescence); format: cell-based, human; settings: 100 or 200 uM, after 24 hours, vs 0 uM
Protocol: Next, we examined the effect of Bax inhibition on hESC growth. hESCs were treated with either 0, 100, or 200 uM of BAX-inhibiting peptide V5 (BIP-V5, Sigma). At time point zero when the peptide was added CellTiter-Glo reagent was also added to the cells and luminescence was measured with a plate reader. Bax inhibition increased the relative growth of the hESCs by 15-25% after 24 hours (FIG. 13).

hESCs [4] = assay: TRA-1-60 immunocytochemistry (flow cytometry of TRA-1-60-positive pluripotent cells); format: cell-based, human; settings: IGF1-treated vs control diploid hESCs
Protocol: hESCs were trypsinized with TrypLE Select. Cells were collected in cold PBS containing 10% KSR, centrifuged at 300 g for 5 min and resuspended in 200 μl PBS containing 10% KSR. PE-conjugated mouse anti-human TRA-1-60 antibody (1:40, BD Biosciences) was then incubated with the cells for 30 min at 4° C. Cells were washed with PBS containing 10% KSR twice, centrifuged at 300 g at 4° C. and resuspended in PBS with 10% KSR. Immunolabelled cells were filtered through a 70 μm cell strainer and analysed in BD FACSAria III for the proportion of TRA-1-60-positive cells.

hESCs [5] = assay: Apoptosis assay (Annexin V / PI flow cytometry); format: cell-based, human; settings: IGF1-treated vs control diploid hESCs
Excerpt: hESCs were trypsinized gently with TrypLE Select. Apoptotic cells were labelled with Annexin V and propidium iodide (PI) using the MEBCYTO Apoptosis Kit according to the manufacturer's instructions (MBL). Labelled cells were filtered through a 70 μm cell strainer and analysed in BD FACSAria III for the proportion of annexin V-positive cells.

hESCs [6] = assay: Cell-cycle profile by PI staining and flow cytometry; format: cell-based, human; settings: IGF1-treated vs control diploid hESCs
Protocol: PI staining was performed as described in Sagi, I., Egli, D. & Benvenisty, N. Identification and propagation of haploid human pluripotent stem cells. Nat. Protoc. 11, 2274-2286 (2016). Briefly, hESCs were trypsinized with TrypLE Select and fixed with cold methanol (4° C.). Fixed cells were treated with 200 μg ml^−1 RNase A (Sigma) for 30 min and stained with 50 μg ml^−1 PI for 5 min. Stained cells were filtered through a 70 μm cell strainer and analysed in BD FACSAria III for their cell-cycle profile.

With `CCC(=O)N1CCN(c2ccc(-n3c(=O)ccc4cnc5ccc(-c6cnc7ccccc7c6)cc5c43)cc2C(F)(F)F)CC1` [Torin 1, reference compound] as the compound, how does the “growth inhibition of fibroblasts” value [1] read?
Its value is “up to 60%”.

What about the “growth and survival of hESCs” value (diploid hESCs; two days of treatment, low nanomolar concentrations) of the same compound?
Its value is “completely abolished”.

Which relative growth of hESCs (CellTiter-Glo luminescence) after 24 hours [2] does the source give for BAX-inhibiting peptide V5 here?
The relative growth of hESCs (CellTiter-Glo luminescence) after 24 hours was 15 to 25%.

How did the “increase in relative growth of hESCs” value (hESCs [3]) turn out when BAX-inhibiting peptide V5 [BIP-V5] was run?
The value was 15-25%.

Which results are given for insulin like growth factor 1 [IGF1]?
growth rate of diploid hESCs (diploid hESCs; IGF1 100 ng ml^-1 in MEF-conditioned medium, especially low levels of KSR, vs untreated control): significantly increased the growth rate; rescue of rapamycin growth-inhibition of hESCs (diploid hESCs; rapamycin + IGF1 vs rapamycin alone): failed to rescue; differentiation dynamics (TRA-1-60+ pluripotent cells) (hESCs [4]): not affecting; percentage of apoptotic hESCs (hESCs [5]): significantly decreases the percentage of apoptotic hESCs; cell-cycle (cells in G2/M phase) (hESCs [6]): not affecting
